Test results reported in patent publication US20240109887A1 (Viva Star Biosciences (Suzhou) Co., Ltd., priority 2021, published 2024).
pIC50: −log10 of the molar value.

Key:
KRAS G12D/SOS1 [1] = molecular target: T1, KRAS G12D/SOS1 (Homo sapiens, UniProt Q07889); experiment: biochemical
T1 sequence (Q07889 1-1333): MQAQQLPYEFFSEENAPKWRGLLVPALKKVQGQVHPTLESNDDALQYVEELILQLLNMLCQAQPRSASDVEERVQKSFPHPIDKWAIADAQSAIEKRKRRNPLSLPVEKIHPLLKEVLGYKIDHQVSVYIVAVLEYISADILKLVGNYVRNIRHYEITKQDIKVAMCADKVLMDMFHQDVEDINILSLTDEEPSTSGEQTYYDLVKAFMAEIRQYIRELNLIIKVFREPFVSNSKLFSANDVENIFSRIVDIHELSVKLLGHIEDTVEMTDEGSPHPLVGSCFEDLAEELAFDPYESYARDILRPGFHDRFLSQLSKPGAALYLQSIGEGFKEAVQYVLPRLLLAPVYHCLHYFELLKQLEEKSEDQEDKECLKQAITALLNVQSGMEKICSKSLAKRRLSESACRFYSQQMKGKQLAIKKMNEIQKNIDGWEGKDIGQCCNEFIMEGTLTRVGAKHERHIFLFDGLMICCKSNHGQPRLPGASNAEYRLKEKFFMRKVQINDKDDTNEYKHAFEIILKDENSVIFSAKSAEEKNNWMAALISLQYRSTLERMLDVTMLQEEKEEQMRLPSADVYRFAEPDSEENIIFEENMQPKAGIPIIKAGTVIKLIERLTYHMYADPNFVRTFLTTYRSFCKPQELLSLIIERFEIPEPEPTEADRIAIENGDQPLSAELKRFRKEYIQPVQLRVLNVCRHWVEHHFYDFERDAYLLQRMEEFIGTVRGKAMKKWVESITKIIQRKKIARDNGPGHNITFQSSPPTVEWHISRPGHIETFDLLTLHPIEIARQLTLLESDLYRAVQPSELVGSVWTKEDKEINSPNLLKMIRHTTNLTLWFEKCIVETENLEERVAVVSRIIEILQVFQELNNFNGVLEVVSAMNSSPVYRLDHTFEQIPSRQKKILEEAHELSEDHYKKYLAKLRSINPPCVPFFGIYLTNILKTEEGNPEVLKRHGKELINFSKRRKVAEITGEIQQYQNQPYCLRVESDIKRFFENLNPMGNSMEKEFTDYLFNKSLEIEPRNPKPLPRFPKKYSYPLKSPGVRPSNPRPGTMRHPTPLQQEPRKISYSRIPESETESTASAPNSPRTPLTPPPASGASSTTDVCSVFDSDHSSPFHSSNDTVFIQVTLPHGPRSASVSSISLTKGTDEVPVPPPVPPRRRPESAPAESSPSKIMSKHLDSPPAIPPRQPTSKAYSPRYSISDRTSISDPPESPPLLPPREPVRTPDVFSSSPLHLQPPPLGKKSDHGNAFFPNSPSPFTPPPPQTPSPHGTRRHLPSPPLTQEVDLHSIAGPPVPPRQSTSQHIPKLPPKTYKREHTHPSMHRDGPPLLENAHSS

KRAS G12C/SOS1 = molecular target: T2, KRAS G12C/SOS1 (Homo sapiens, UniProt Q07889); experiment: biochemical
T2 sequence (Q07889 1-1333): T1 sequence (Q07889 1-1333)

KRAS-WT/SOS1 [2] = molecular target: T3, KRAS-WT/SOS1 (Homo sapiens, UniProt Q07889); experiment: biochemical
T3 sequence (Q07889 1-1333): T1 sequence (Q07889 1-1333)

KRAS G12D/SOS1 [3] = molecular target: T1, KRAS G12D/SOS1; experiment: KRAS G12D/SOS1 binding assay (HTRF); details: Tag2-KRAS G12D with Tag1-SOS1, 10 μM GTP
KRAS-WT/SOS1 [4] = molecular target: T3, KRAS-WT/SOS1; experiment: KRAS-WT/SOS1 binding assay (HTRF); details: Tag2-KRAS-WT with Tag1-SOS1, 10 μM GTP

Row | Compound | pIC50 (KRAS G12D/SOS1 [1]) | pIC50 (KRAS G12C/SOS1) | pIC50 (KRAS-WT/SOS1 [2]) | Activity Data in Kras: SOS1 Assay, G12D (KRAS G12D/SOS1 [3]) | Activity Data in Kras: SOS1 Assay, Wild Type (KRAS-WT/SOS1 [4])
1 | C[C@@H](NC(=O)c1cn(C2CCOCC2)c(=O)c2c[nH]nc12)c1cccc(C(F)F)c1F [Example 3, (R)-N-(1-(3-(difluoromethyl)-2-fluorophenyl)ethyl)-4-oxo-5-(tetrahydro-2H-pyran-4-yl)-4,5-dihydro-2H-pyrazolo[4,3-c]pyridine-7-carboxamide] | > 7.00 | > 7.00 | > 7.00 | – | –
2 | C[C@@H](NC(=O)c1cn([C@H]2CC[C@@H](C(=O)N(C)CCO)CC2)c(=O)c2c[nH]nc12)c1cccc2c1CCC2(F)F [Example 11, N—((R)-1-(1,1-difluoro-2,3-dihydro-1H-inden-4-yl)ethyl)-5-((1s,4S)-4-((2-hydroxyethyl)(methyl)carbamoyl)cyclohexyl)-4-oxo-4,5-dihydro-2H-pyrazolo[4,3-c]pyridine-7-carboxamide] | – | – | – | C (C: 500~5 μM) | C (C: 500~5 μM)
3 | C[C@@H](NC(=O)c1cn(C2(C)CC2)c(=O)c2cn[nH]c12)c1cccc(C(F)(F)F)n1 [Example 8, (R)-5-(1-methylcyclopropyl)-4-oxo-N-(1-(6-(trifluoromethyl)pyridin-2-yl)ethyl)-4,5-dihydro-1H-pyrazolo[4,3-c]pyridine-7-carboxamide] | – | – | – | C (C: 500~5 μM) | C (C: 500~5 μM)
4 | C[C@@H](NC(=O)c1cn(C2CCOCC2)c(=O)c2c[nH]nc12)c1cccc(C(F)(F)CO)c1 [Example 1, (R)—N-(1-(3-(1,1-difluoro-2-hydroxyethyl)phenyl)ethyl)-4-oxo-5-(tetrahydro-2H-pyran-4-yl)-4,5-dihydro-2H-pyrazolo[4,3-c]pyridine-7-carboxamide] | > 7.00 | > 7.00 | – | – | –
5 | COc1c(N2CCOCC2)nc(C(=O)N[C@H](C)c2cccc3c2CCC3(F)F)c2n[nH]cc12 [Example 44, (R)—N-(1-(1,1-difluoro-2,3-dihydro-1H-inden-4-yl)ethyl)-4-methoxy-5-morpholino-2H-pyrazolo[3,4-c]pyridine-7-carboxamide] | – | – | – | C (C: 500~5 μM) | C (C: 500~5 μM)
6 | Cc1nc(N[C@H](C)c2cccc(C(F)(F)CO)c2)c2c(n1)N(C)C(=O)N(C1CCOCC1)C2 [Example 25, (R)-5-((1-(3-(1,1-difluoro-2-hydroxyethyl)phenyl)ethyl)amino)-1,7-dimethyl-3-(tetrahydro-2H-pyran-4-yl)-3,4-dihydropyrimido[4,5-d]pyrimidin-2(1H)-one] | – | 6.30 to 7.00 | 6.30 to 7.00 | – | –
7 | COc1c(C2CCOCC2)cc(C(=O)N[C@H](C)c2cccc3c2CCC3(F)F)c2n[nH]cc12 [Example 16, N-[(1R)-1-(1,1-difluoro-2,3-dihydro-1H-inden-4-yl)ethyl]-4-methoxy-5-(oxan-4-yl)-2H-indazole-7-carboxamide] | – | 6.30 to 7.00 | – | – | –
8 | C[C@@H](NC(=O)c1cn(C2CCOCC2)c(=O)c2cc[nH]c12)c1cccc2c1CCC2(F)F [Example 38, (R)—N-(1-(1,1-difluoro-2,3-dihydro-1H-inden-4-yl)ethyl)-4-oxo-5-(tetrahydro-2H-pyran-4-yl)-4,5-dihydro-1H-pyrrolo[3,2-c]pyridine-7-carboxamide] | – | > 7.00 | – | – | –
9 | COc1c(OC2CC(F)(F)C2)cc(C(=O)N[C@H](C)c2cccc3c2CCC3(F)F)c2n[nH]cc12 [Example 31, (R)-N-(1-(1,1-difluoro-2,3-dihydro-1H-inden-4-yl)ethyl)-5-(3,3-difluorocyclobutoxy)-4-methoxy-2H-indazole-7-carboxamide] | – | – | – | C (C: 500~5 μM) | C (C: 500~5 μM)
